Laboratory results published in ChEMBL document CHEMBL1201862, “PubChem BioAssay data set” (2004).
Active and inactive are the calls of the source.

How the values were obtained:
[1] = biological target: T1, Sentrin-specific protease 8 (Homo sapiens, UniProt Q96LD8); format: functional;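 note: luminescence read-out of SENP8 inhibition, dose-response confirmation following an ultra-high-throughput screen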
T1 sequence (Q96LD8 whole entry): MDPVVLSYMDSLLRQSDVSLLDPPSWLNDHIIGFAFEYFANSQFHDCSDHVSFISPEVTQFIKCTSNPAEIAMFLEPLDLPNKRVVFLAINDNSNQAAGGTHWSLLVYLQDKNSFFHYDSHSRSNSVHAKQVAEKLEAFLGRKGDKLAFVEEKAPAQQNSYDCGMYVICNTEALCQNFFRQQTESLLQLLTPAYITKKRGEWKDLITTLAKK

[2] = biological target: T2, Sentrin-specific protease 7 (Homo sapiens, UniProt Q9BQF6); format: functional;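 note: Luminescence-based dose-response confirmation of ultra-high-throughput screening hits, measuring inhibition of SENP7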
T2 sequence (Q9BQF6 whole entry): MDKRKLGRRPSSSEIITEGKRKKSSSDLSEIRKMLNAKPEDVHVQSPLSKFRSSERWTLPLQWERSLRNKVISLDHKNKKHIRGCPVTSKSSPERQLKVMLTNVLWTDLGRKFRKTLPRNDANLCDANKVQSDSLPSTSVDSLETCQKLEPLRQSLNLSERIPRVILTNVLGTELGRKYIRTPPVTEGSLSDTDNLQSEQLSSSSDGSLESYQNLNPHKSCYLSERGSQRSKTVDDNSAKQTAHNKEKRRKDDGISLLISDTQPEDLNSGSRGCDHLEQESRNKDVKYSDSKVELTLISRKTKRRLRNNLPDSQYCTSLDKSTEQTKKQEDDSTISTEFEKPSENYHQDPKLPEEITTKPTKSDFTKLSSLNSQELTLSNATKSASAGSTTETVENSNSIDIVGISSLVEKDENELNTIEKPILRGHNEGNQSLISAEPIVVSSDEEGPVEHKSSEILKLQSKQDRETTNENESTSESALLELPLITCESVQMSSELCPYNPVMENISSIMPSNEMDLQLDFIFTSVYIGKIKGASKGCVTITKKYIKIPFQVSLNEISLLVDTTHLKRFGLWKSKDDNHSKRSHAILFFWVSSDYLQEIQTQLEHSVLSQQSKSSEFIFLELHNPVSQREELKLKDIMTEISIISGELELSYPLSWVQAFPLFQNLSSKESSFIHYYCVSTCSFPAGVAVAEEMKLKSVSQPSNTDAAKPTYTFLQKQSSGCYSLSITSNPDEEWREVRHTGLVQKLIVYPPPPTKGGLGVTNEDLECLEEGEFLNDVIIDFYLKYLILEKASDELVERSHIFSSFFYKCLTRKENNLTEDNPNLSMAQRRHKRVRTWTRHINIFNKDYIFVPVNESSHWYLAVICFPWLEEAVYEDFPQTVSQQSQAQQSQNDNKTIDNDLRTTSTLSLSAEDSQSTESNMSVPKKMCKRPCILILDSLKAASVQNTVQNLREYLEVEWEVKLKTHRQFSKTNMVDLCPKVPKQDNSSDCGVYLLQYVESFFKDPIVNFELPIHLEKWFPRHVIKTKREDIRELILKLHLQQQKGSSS

[3] = biological target: Tyrosine-protein kinase Lck (Homo sapiens, UniProt P06239); format: functional;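 note: lck was assayed as one member of a kinase panel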
[4] = biological target: Cyclin-dependent kinase 8 (Homo sapiens, UniProt P49336); assay: Navigating the Kinome. Panel member name: CDK8; format: functional
[5] = biological target: Tyrosine-protein kinase JAK2 (Homo sapiens, UniProt O60674); format: functional;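 note: JAK2 tested as one member of a kinase panel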
[6] = biological target: Protein kinase C theta type (Homo sapiens, UniProt Q04759); assay: Navigating the Kinome. Panel member name: PRKCQ; format: functional
[7] = biological target: Tyrosine-protein kinase JAK3 (Homo sapiens, UniProt P52333); format: functional
[8] = biological target: Dual specificity mitogen-activated protein kinase kinase 1 (Homo sapiens, UniProt Q02750); assay: Navigating the Kinome. Panel member name: MAP2K1; format: functional
[9] = biological target: Casein kinase I isoform alpha (Homo sapiens, UniProt P48729); format: functional
[10] = biological target: Serine/threonine-protein kinase PAK 4 (Homo sapiens, UniProt O96013); format: functional;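 note: value obtained within a kinome profiling panel in which PAK4 was one of the panel members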
[11] = biological target: Receptor-type tyrosine-protein kinase FLT3 (Homo sapiens, UniProt P36888); format: functional;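 note: FLT3 was tested as one member of a kinome-wide kinase panel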
[12] = biological target: Proto-oncogene tyrosine-protein kinase receptor Ret (Homo sapiens, UniProt P07949); format: functional;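 note: measured within a kinome-wide profiling panel, RET as the panel member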
[13] = biological target: Fibroblast growth factor receptor 1 (Homo sapiens, UniProt P11362); format: functional
[14] = biological target: BDNF/NT-3 growth factors receptor (Homo sapiens, UniProt Q16620); format: functional;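 note: NTRK2 measured as one member of a broad kinome-wide kinase profiling panel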
[15] = biological target: Macrophage colony-stimulating factor 1 receptor (Homo sapiens, UniProt P07333); format: functional;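 note: value comes from the Navigating the Kinome screening panel, CSF1R member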
[16] = biological target: Dual specificity tyrosine-phosphorylation-regulated kinase 1A (Homo sapiens, UniProt Q13627); format: functional;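 note: measured against DYRK1A as one member of a broad kinome profiling panel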
[17] = biological target: Leukocyte tyrosine kinase receptor (Homo sapiens, UniProt P29376); assay: Navigating the Kinome. Panel member name: LTK; format: functional
[18] = test system: Streptococcus sp. 'group A'; assay: Streptococcus pyogenes SK(-)GAS viability under kanamycin – luminescence, BacTiterGlo, confirmation, counter-screen for streptokinase expression inhibitor project, dose response (AID 1900); format: functional, organism-based
[19] = biological target: T3, Streptokinase A (Streptococcus pyogenes serotype M1, UniProt P10520); assay: viability-normalized secreted streptokinase activity reduction – plasminogen activation absorbance, OD405, dose response (AID 1914); format: functional, Streptococcus pyogenes M1 GAS;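 note: secreted streptokinase activity via plasminogen activation per viability signal from cell pellet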
T3 sequence (P10520 whole entry): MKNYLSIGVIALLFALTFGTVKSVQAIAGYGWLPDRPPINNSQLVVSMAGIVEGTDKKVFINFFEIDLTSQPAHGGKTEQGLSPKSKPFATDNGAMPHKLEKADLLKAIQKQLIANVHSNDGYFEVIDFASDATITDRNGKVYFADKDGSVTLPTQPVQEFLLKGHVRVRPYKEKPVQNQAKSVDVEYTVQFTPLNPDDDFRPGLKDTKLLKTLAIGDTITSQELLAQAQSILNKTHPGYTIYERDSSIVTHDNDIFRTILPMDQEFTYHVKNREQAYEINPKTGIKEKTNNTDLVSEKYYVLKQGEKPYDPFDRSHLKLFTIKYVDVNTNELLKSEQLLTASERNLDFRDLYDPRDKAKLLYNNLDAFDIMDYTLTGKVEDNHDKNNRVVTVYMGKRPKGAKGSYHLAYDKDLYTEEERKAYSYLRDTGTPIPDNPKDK

Proto-oncogene tyrosine-protein kinase receptor Ret, sequence (P07949 whole entry): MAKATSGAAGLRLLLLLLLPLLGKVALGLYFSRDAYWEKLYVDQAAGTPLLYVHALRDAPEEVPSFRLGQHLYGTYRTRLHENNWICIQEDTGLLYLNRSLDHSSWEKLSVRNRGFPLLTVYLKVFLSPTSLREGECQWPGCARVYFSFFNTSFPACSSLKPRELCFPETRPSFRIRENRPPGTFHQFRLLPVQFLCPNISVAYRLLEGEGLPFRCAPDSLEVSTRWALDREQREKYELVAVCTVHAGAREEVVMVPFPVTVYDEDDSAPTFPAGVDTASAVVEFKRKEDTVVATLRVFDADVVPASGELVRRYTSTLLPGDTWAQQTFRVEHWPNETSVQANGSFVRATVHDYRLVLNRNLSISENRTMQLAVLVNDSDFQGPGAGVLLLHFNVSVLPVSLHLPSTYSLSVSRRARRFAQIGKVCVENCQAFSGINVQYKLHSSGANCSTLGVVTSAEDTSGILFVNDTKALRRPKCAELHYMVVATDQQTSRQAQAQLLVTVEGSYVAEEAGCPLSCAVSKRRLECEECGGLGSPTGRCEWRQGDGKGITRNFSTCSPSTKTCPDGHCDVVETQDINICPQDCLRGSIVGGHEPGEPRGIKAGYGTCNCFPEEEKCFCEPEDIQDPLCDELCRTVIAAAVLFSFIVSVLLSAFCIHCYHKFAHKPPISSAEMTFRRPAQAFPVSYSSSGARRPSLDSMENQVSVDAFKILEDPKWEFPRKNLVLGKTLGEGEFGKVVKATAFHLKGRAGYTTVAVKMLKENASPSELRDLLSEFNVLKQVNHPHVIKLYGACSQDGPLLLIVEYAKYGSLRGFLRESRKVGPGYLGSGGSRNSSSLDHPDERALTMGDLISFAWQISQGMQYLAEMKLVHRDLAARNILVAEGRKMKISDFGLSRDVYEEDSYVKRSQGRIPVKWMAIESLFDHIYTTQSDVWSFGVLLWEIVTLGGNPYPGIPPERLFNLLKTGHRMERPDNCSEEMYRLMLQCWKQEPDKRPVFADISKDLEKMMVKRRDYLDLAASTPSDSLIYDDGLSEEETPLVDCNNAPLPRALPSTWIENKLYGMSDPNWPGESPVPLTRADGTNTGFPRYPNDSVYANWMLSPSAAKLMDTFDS
Tyrosine-protein kinase JAK2, sequence (O60674 whole entry): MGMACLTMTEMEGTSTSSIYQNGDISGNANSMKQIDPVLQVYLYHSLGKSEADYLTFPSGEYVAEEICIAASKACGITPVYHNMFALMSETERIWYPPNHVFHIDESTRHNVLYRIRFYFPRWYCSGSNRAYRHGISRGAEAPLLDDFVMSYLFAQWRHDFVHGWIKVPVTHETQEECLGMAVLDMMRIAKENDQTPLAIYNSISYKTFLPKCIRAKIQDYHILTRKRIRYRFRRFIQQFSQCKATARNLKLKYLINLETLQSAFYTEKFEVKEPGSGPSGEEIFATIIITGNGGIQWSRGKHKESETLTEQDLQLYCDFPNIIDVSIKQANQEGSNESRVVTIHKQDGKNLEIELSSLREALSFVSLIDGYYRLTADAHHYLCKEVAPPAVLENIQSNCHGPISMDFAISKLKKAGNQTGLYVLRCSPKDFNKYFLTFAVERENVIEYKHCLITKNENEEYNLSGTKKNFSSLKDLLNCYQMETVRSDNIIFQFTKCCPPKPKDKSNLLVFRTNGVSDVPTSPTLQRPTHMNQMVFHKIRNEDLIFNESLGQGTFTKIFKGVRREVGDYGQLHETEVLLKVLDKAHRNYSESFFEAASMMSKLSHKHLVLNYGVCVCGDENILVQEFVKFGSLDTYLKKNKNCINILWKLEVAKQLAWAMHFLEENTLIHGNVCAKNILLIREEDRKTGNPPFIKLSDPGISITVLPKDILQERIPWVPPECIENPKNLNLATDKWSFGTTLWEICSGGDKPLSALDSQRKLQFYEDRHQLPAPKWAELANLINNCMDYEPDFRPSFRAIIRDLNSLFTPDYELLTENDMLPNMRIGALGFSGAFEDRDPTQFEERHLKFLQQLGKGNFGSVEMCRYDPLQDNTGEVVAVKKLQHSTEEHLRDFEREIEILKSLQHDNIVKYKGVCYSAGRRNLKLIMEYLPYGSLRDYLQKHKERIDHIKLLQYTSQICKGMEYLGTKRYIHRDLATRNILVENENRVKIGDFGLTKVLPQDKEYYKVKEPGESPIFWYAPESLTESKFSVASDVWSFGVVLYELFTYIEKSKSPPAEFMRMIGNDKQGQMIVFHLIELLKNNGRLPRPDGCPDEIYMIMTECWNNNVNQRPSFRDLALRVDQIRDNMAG
BDNF/NT-3 growth factors receptor, sequence (Q16620 whole entry): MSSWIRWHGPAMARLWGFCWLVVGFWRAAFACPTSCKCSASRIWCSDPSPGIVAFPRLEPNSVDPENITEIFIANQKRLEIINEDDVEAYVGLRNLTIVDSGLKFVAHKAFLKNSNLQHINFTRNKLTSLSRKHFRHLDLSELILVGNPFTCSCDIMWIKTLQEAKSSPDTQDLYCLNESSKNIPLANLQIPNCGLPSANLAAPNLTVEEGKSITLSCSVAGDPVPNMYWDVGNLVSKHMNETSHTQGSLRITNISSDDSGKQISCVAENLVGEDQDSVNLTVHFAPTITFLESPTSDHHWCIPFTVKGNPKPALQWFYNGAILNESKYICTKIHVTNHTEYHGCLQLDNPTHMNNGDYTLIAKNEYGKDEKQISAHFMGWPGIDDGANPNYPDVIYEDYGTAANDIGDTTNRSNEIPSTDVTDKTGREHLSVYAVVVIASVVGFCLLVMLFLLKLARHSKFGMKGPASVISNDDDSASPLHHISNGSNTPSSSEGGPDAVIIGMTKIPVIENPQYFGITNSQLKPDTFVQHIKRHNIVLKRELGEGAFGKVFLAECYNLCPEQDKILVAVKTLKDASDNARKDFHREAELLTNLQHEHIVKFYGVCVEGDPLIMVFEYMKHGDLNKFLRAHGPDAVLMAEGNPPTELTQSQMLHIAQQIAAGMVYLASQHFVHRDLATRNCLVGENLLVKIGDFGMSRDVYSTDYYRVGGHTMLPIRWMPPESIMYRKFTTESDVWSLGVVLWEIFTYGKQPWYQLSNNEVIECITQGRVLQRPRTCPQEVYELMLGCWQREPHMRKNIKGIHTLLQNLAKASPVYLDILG
Dual specificity mitogen-activated protein kinase kinase 1, sequence (Q02750 whole entry, canonical isoform): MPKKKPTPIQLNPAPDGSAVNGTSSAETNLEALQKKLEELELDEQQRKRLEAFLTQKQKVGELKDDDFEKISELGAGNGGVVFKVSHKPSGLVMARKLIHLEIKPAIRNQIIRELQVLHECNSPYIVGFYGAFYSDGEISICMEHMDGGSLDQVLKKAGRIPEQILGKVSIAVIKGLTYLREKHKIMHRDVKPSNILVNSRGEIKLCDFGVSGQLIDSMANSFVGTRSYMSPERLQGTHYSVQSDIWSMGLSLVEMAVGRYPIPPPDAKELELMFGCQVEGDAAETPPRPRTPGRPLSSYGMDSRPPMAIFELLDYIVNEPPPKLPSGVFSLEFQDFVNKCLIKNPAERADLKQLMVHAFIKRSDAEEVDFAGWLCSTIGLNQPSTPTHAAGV
Tyrosine-protein kinase Lck, sequence (P06239 whole entry): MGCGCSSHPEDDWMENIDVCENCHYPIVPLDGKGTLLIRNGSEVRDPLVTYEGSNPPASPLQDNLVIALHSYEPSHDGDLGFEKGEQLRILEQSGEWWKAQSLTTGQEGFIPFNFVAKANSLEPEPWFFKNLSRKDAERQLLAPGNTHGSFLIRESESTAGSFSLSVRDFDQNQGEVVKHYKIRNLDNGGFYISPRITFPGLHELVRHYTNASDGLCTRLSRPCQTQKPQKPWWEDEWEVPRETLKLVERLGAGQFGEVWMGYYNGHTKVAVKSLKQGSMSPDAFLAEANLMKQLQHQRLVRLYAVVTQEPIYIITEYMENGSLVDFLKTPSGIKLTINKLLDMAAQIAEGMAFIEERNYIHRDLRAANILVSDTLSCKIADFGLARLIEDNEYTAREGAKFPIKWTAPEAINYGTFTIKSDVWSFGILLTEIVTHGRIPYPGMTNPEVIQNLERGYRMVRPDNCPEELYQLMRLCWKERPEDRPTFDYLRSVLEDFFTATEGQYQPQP
Serine/threonine-protein kinase PAK 4, sequence (O96013 whole entry): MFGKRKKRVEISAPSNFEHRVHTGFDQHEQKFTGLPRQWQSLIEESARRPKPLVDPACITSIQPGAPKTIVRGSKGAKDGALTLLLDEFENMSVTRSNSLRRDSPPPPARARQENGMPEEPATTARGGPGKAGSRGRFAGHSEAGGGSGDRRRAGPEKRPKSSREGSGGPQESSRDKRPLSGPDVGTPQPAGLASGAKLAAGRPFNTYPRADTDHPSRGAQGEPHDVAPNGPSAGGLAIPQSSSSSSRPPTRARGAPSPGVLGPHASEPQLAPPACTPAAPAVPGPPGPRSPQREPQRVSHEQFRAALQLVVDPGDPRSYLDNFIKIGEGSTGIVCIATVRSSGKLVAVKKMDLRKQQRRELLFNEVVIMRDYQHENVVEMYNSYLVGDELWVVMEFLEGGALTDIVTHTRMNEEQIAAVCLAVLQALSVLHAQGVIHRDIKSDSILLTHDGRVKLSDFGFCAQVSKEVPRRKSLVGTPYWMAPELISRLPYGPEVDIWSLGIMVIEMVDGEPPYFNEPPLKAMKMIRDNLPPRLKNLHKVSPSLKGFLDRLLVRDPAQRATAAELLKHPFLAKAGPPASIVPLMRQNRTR
Casein kinase I isoform alpha, sequence (P48729 whole entry, canonical isoform): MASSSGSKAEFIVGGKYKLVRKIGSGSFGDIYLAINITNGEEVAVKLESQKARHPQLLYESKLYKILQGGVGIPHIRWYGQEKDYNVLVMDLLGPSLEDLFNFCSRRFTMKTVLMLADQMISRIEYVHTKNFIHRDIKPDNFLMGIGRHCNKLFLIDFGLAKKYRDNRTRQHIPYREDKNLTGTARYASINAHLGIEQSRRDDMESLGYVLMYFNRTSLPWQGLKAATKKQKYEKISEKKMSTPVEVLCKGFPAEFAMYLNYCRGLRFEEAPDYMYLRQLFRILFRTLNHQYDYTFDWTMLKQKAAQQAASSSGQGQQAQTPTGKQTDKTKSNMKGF

| Compound | IC50 [1] | IC50 [2] | Ki [3] | Ki [4] | Ki [5] | Ki [6] | Ki [7] | Ki [8] | Ki [9] | Ki [10] | Ki [11] | Ki [12] | Ki [13] | Ki [14] | Ki [15] | Ki [16] | Ki [17] | EC50 [18] | EC50 [19] |
| --- | --- | --- | --- | --- | --- | --- | --- | --- | --- | --- | --- | --- | --- | --- | --- | --- | --- | --- | --- |
| O=C(N/N=C/c1c(O)ccc2ccccc12)c1[nH]ncc1Br | > 100 µM (inactive) | 7.19 µM (active) | – | – | – | – | – | – | – | – | – | – | – | – | – | – | – | – | – |
| Nc1c(-c2ccc(NC(=O)Nc3cccc(C(F)(F)F)c3)cc2)cnc2c(-c3ccc4c(c3)OCO4)cnn12 | – | – | 0.0316 µM (active) | 0.0251 µM (active) | > 2.51 µM (inactive) | > 2.51 µM (inactive) | > 5.01 µM (inactive) | > 3.16 µM (inactive) | > 3.98 µM (inactive) | > 5.01 µM (inactive) | 0.0501 µM (active) | 0.00398 µM (active) | > 3.98 µM (inactive) | 0.0126 µM (active) | 0.0631 µM (active) | > 2 µM (inactive) | > 2.51 µM (inactive) | – | – |
| CCN1C(=Cc2sc3ccccc3[n+]2C)C=Cc2cccc(C)c21 | – | – | – | – | – | – | – | – | – | – | – | – | – | – | – | – | – | 4.08 µM (active) | > 150 µM (not active) |
| CNC[C@H](Cc1ccccc1)NC[C@@H](Cc1cccc2ccccc12)NCCc1ccc(C)cc1 | – | – | – | – | – | – | – | – | – | – | – | – | – | – | – | – | – | 4.79 µM (active) | > 150 µM (not active) |
| Nc1nnc2c(n1)CCCC2 | 10.8 µM (active) | 10.2 µM (active) | – | – | – | – | – | – | – | – | – | – | – | – | – | – | – | – | – |
| O=C(Nc1cc(-c2c[nH]c3ncccc23)cc(Cl)n1)c1ccccc1 | – | – | > 6.31 µM (inactive) | 0.0794 µM (active) | > 2.51 µM (inactive) | > 2.51 µM (inactive) | > 5.01 µM (inactive) | > 3.16 µM (inactive) | > 2.51 µM (inactive) | > 5.01 µM (inactive) | > 2.51 µM (inactive) | > 3.16 µM (inactive) | > 3.98 µM (inactive) | > 3.98 µM (inactive) | > 2.51 µM (inactive) | 0.251 µM (active) | > 2.51 µM (inactive) | – | – |
